Assay results as given in ChEMBL document CHEMBL1136145, “Antitumor activity of unsaturated fatty acid esters of 4'-demethyldeoxypodophyllotoxin” (Bioorg Med Chem Lett, 2003).
In brackets after ≈: the same amount, converted by molar mass.

Assays:
A549 = assay: Cytotoxicity in A549 (human carcinoma) cell line.; format: functional; conditions: read-out: ED50 (the source's name)
SK-MEL-2 = assay: Cytotoxicity in SK-MEL-2 (human melanoma) cell line.; format: functional; conditions: read-out: ED50 (the source's name)
[1] = Inhibition of DNA topoisomerase II in S180 (murine sarcoma) cells.; format: functional, cell-based, Mus musculus; conditions: ccrf s-180
Tubulin = assay: Inhibition of tubulin polymerization in S180 (murine sarcoma) cells.; format: functional, cell-based; conditions: ccrf s-180
CCRF S-180 = assay: Cytotoxicity in S-180 (murine sarcoma) cell was determined.; format: functional, cell-based; conditions: Mus musculus

Row | SMILES | EC50 (A549) [µg/mL] | EC50 (SK-MEL-2) [µg/mL] | IC50 [1] [µM] | IC50 (Tubulin) [nM] | IC50 (CCRF S-180) [nM]
1 | CCCC/C=C\C/C=C\C/C=C\C/C=C\CCCC(=O)Oc1c(OC)cc([C@@H]2c3cc4c(cc3C[C@H]3COC(=O)[C@@H]32)OCO4)cc1OC | 0.91 (≈ 1.39 µM) | 0.184 (≈ 0.28 µM) | – | – | –
2 | COc1cc([C@@H]2c3cc4c(cc3C[C@H]3COC(=O)[C@@H]32)OCO4)cc(OC)c1OC [DESOXYPODOPHYLLOTOXIN] | 0.012 (≈ 0.0301 µM) | 0.009 (≈ 0.0226 µM) | – | – | –
3 | CCCCCC/C=C\CCCCCCCCCC(=O)Oc1c(OC)cc([C@@H]2c3cc4c(cc3C[C@H]3COC(=O)[C@@H]32)OCO4)cc1OC | 0.335 (≈ 0.516 µM) | 0.057 (≈ 0.0878 µM) | – | – | –
4 | CC/C=C\C/C=C\C/C=C\CCCCCCCC(=O)Oc1c(OC)cc([C@@H]2c3cc4c(cc3C[C@H]3COC(=O)[C@@H]32)OCO4)cc1OC | 0.084 (≈ 0.13 µM) | 0.048 (≈ 0.0744 µM) | – | – | –
5 | CCCCCCCCCCCCCCCCCCCCCC(=O)Oc1c(OC)cc([C@@H]2c3cc4c(cc3C[C@H]3COC(=O)[C@@H]32)OCO4)cc1OC | > 5 | > 5 | – | – | –
6 | CCCC/C=C\C/C=C\CCCCCCCCCC(=O)Oc1c(OC)cc([C@@H]2c3cc4c(cc3C[C@H]3COC(=O)[C@@H]32)OCO4)cc1OC | 0.87 (≈ 1.32 µM) | 0.347 (≈ 0.525 µM) | – | – | –
7 | CCCCCC/C=C/CCCCCCCCCC(=O)Oc1c(OC)cc([C@@H]2c3cc4c(cc3C[C@H]3COC(=O)[C@@H]32)OCO4)cc1OC | 1.01 (≈ 1.56 µM) | 0.253 (≈ 0.39 µM) | – | – | –
8 | CC/C=C\C/C=C\C/C=C\C/C=C\C/C=C\C/C=C\CCC(=O)Oc1c(OC)cc([C@@H]2c3cc4c(cc3C[C@H]3COC(=O)[C@@H]32)OCO4)cc1OC | 0.119 (≈ 0.171 µM) | 0.035 (≈ 0.0504 µM) | – | – | –
9 | CCCCCC/C=C\CCCCCCCC(=O)Oc1c(OC)cc([C@@H]2c3cc4c(cc3C[C@H]3COC(=O)[C@@H]32)OCO4)cc1OC | 0.733 (≈ 1.18 µM) | 0.065 (≈ 0.105 µM) | – | – | –
10 | COc1cc([C@@H]2c3cc4c(cc3C[C@H]3COC(=O)[C@@H]32)OCO4)cc(OC)c1O [4'-DEMETHYLDEOXYPODOPHYLLOTOXIN] | 0.023 (≈ 0.0598 µM) | 0.015 (≈ 0.039 µM) | 24.5 | 2000 | 30
11 | CCCCCCC/C=C/CCCCCCCCCC(=O)Oc1c(OC)cc([C@@H]2c3cc4c(cc3C[C@H]3COC(=O)[C@@H]32)OCO4)cc1OC | 1.66 (≈ 2.5 µM) | 1.13 (≈ 1.7 µM) | – | – | –
12 | CCCCCCCCCCCCCCCCCC(=O)Oc1c(OC)cc([C@@H]2c3cc4c(cc3C[C@H]3COC(=O)[C@@H]32)OCO4)cc1OC | 2.67 (≈ 4.1 µM) | > 5 | – | – | –
13 | CCCCC/C=C\C/C=C\C/C=C\CCCCC(=O)Oc1c(OC)cc([C@@H]2c3cc4c(cc3C[C@H]3COC(=O)[C@@H]32)OCO4)cc1OC | 0.085 (≈ 0.132 µM) | 0.041 (≈ 0.0636 µM) | – | – | –
14 | CCCCCCCCCCCCCCCCCCCC(=O)Oc1c(OC)cc([C@@H]2c3cc4c(cc3C[C@H]3COC(=O)[C@@H]32)OCO4)cc1OC | > 5 | > 5 | – | – | –
15 | CCCCCCCC/C=C\CCCCCCCCCCCC(=O)Oc1c(OC)cc([C@@H]2c3cc4c(cc3C[C@H]3COC(=O)[C@@H]32)OCO4)cc1OC | 2.71 (≈ 3.84 µM) | 0.561 (≈ 0.796 µM) | – | – | –
16 | CCCCCCCC/C=C/CCCCCCCC(=O)Oc1c(OC)cc([C@@H]2c3cc4c(cc3C[C@H]3COC(=O)[C@@H]32)OCO4)cc1OC | 0.367 (≈ 0.566 µM) | 0.55 (≈ 0.848 µM) | – | – | –
17 | CCCCCCCC/C=C\CCCCCCCCCC(=O)Oc1c(OC)cc([C@@H]2c3cc4c(cc3C[C@H]3COC(=O)[C@@H]32)OCO4)cc1OC | > 5 | > 5 | – | – | –
18 | CCCCC/C=C\C/C=C\CCCCCCCC(=O)Oc1c(OC)cc([C@@H]2c3cc4c(cc3C[C@H]3COC(=O)[C@@H]32)OCO4)cc1OC | 0.09 (≈ 0.139 µM) | 0.03 (≈ 0.0464 µM) | – | – | –
19 | CCCCCCCC/C=C\CCCCCCCC(=O)Oc1c(OC)cc([C@@H]2c3cc4c(cc3C[C@H]3COC(=O)[C@@H]32)OCO4)cc1OC | 0.179 (≈ 0.276 µM) | 0.159 (≈ 0.245 µM) | – | – | –
20 | CCCCCCCCCCCCCCCC(=O)Oc1c(OC)cc([C@@H]2c3cc4c(cc3C[C@H]3COC(=O)[C@@H]32)OCO4)cc1OC | 0.268 (≈ 0.43 µM) | 0.29 (≈ 0.466 µM) | – | – | –
21 | CCCCC/C=C/C/C=C/CCCCCCCC(=O)Oc1c(OC)cc([C@@H]2c3cc4c(cc3C[C@H]3COC(=O)[C@@H]32)OCO4)cc1OC | 0.259 (≈ 0.4 µM) | 0.11 (≈ 0.17 µM) | – | – | –
